pIC50: −log10 of the molar value.
Biological target: Mouse ERK2 protein (Mus musculus (Mouse), UniProt P63085)
Assay: Coupled MEK1/ERK2 IMAP assay or Active ERK2 IMAP assay
Assay type: biochemical
Settings: Table 1, class symbols, 30 μM ATP

Mouse ERK2 protein, sequence (P63085 whole entry): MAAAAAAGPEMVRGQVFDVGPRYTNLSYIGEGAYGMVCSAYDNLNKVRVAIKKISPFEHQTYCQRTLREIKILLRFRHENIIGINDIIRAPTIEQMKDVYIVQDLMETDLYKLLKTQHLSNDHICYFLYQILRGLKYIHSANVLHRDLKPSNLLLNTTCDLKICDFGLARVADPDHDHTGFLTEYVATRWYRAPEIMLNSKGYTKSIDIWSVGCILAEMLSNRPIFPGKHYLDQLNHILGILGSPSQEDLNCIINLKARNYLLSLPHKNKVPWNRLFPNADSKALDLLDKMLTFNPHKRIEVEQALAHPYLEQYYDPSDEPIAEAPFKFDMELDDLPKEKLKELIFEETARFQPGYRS

Structure (SMILES) | pIC50
Cc1cc(-c2n[nH]c3c2CN(C(=O)NC2CC(CO)CN(Cc4c(F)cccc4F)C2)CC3)ccn1 (stereo not shown) [Compound 86, N-[1-[(2,6-difluorophenyl)-methyl]-5-(hydroxymethyl)-3-piperidinyl]-1,4,6,7-tetrahydro-3-(2-methyl-4-pyridinyl)-5H-pyrazolo[4,3-c]pyridine-5-carboxamide] | 7.00 to 7.68
Cc1cc(-c2n[nH]c3c2CN(C(=O)NC2CN(Cc4c(F)cccc4F)CCC2F)CC3)ccn1 (mixture of isomers) [Compound 158, N-[cis/trans-1-[(2,6-difluorophenyl)methyl]-4-fluoro-3-piperidinyl]-1,4,6,7-tetrahydro-3-(2-methyl-4-pyridinyl)-5H-pyrazolo[4,3-c]pyridine-5-carboxamide] | 6.00 to 7.00
Cc1ccc([C@@H]2CNC[C@H]2NC(=O)N2CCc3[nH]nc(-c4ccncc4)c3C2)cc1 (racemic) [Compound 157, 1,4,6,7-tetrahydro-N-[trans-4-(4-methylphenyl)-3-pyrrolidinyl]-3-(4-pyridinyl)-5H-pyrazolo[4,3-c]pyridine-5-carboxamide] | > 7.70
CC(C(=O)N1CCc2[nH]nc(-c3ccncc3)c2C1)c1ccccc1Cl (stereo not shown) [Compound 41, 5-[2-(2-chlorophenyl)-1-oxopropyl]-4,5,6,7-tetrahydro-3-(4-pyridinyl)-1H-pyrazolo[4,3-c]pyridine] | 4.00 to 6.00
Cc1cc(-c2n[nH]c3c2CN(C(=O)NC2CC(C)CN(Cc4cc5ccccc5n4C)C2)CC3)ccn1 (stereo not shown) [Compound 102, 1,4,6,7-tetrahydro-N-[5-methyl-1-[(1-methyl-1H-indol-2-yl)methyl]-3-piperidinyl]-3-(2-methyl-4-pyridinyl)-5H-pyrazolo[4,3-c]pyridine-5-carboxamide] | 7.00 to 7.68
Cc1cc(-c2n[nH]c3c2CN(C(=O)N[C@@H]2CCN(Cc4c(C)cccc4C)C2)CC3)ccn1 [Compound 119, N-[1-[(2,6-dimethylphenyl)-methyl]-3(R)-pyrrolidinyl]-1,4,6,7-tetrahydro-3-(2-methyl-4-pyridinyl)-5H-pyrazolo[4,3-c]pyridine-5-carboxamide] | 7.00 to 7.68
Cn1ncc2cc(-c3n[nH]c4c3CN(C(=O)N[C@@H]3CCCN(Cc5c(F)cccc5F)C3)CC4)ccc21 [Compound 134, N-[1-[(2,6-difluorophenyl)-methyl]-3(R)-piperidinyl]-1,4,6,7-tetrahydro-3-(1-methyl-1H-indazol-5-yl)-5H-pyrazolo[4,3-c]pyridine-5-carboxamide] | 7.00 to 7.68
O=C(C(CO)c1ccccc1)N1CCc2[nH]nc(-c3ccncc3)c2C1 (stereo not drawn) [Compound 38, 1,4,6,7-tetrahydro-gamma-oxo-beta-phenyl-3-(4-pyridinyl)-5H-pyrazolo[4,3-c]pyridine-5-propanol] | 4.00 to 6.00
O=C(N[C@H]1CNC[C@@H]1c1ccccc1)C1CCc2[nH]nc(-c3ccc4ncsc4c3)c2C1 (mixture of isomers) [Compound 43, 3-(6-benzothiazolyl)-4,5,6,7-tetrahydro-N-(trans-4-phenyl-3-pyrrolidinyl)-1H-indazole-5-carboxamide] | 4.00 to 6.00
O=C(Cc1ccccn1)N1CCc2[nH]nc(-c3ccncc3)c2C1 [Compound 30, 4,5,6,7-tetrahydro-3-(4-pyridinyl)-5-(2-pyridinylacetyl)-1H-pyrazolo[4,3-c]pyridine] | 6.00 to 7.00
Cc1cc(-c2n[nH]c3c2CN(C(=O)NC2CC(C)CN(Cc4c(F)cccc4Cl)C2)CC3)ccn1 (stereo not shown) [Compound 91, N-[1-[(2-chloro-6-fluorophenyl)methyl]-5-methyl-3-piperidinyl)-1,4,6,7-tetrahydro-3-(2-methyl-4-pyridinyl)-5H-pyrazolo[4,3-c]pyridine-5-carboxamide] | > 7.70
Cc1cc(-c2n[nH]c3c2CN(C(=O)N[C@@H]2CCN(Cc4c(F)cccc4F)C2)CC3)ccn1 [Compound 115, N-[1-[(2,6-difluorophenyl)-methyl]-3(R)-pyrrolidinyl]-1,4,6,7-tetrahydro-3-(2-methyl-4-pyridinyl)-5H-pyrazolo[4,3-c]pyridine-5-carboxamide] | 6.00 to 7.00
Cc1cc(-c2n[nH]c3c2CN(C(=O)NC2CC(C(=O)O)CN(Cc4c(F)cccc4F)C2)CC3)ccn1 (stereo not shown) [Compound 83, 1-[(2,6-difluorophenyl)-methyl]-5-[[[1,4,6,7-tetrahydro-3-(2-methyl-4-pyridinyl)-5H-pyrazolo[4,3-c]pyridin-5-yl]carbonyl]amino]-3-piperidinecarboxylic acid] | 6.00 to 7.00
O=C(N[C@@H]1CNC[C@H]1c1cccc(-c2ccccc2)c1)N1CCc2[nH]nc(-c3ccncc3)c2C1 (racemic) [Compound 167, N-[trans-4-[1,1′-biphenyl]-3-yl-3-pyrrolidinyl]-1,4,6,7-tetrahydro-3-(4-pyridinyl)-5H-pyrazolo[4,3-c]pyridine-5-carboxamide] | > 7.70
Nc1nc(CC(=O)N2CCc3[nH]nc(-c4ccncc4)c3C2)cs1 [Compound 5, 5-[(2-amino-4-thiazolyl)-acetyl]-4,5,6,7-tetrahydro-3-(4-pyridinyl)-1H-pyrazolo[4,3-c]pyridine] | 4.00 to 6.00
Cc1nc2cc(-c3n[nH]c4c3CN(C(=O)N[C@@H]3CCCN(Cc5ccccc5)C3)CC4)ccc2s1 [Compound 190, 1,4,6,7-tetrahydro-3-(2-methyl-5-benzothiazolyl)-N-[1-(phenylmethyl)-3(R)-piperidinyl]-5H-pyrazolo[4,3-c]pyridine-5-carboxamide] | 6.00 to 7.00
O=C(Cc1ccc(-c2ccccc2)cc1)N1CCc2[nH]nc(-c3ccncc3)c2C1 [Compound 32, 5-([1,1′-biphenyl]-4-ylacetyl)-4,5,6,7-tetrahydro-3-(4-pyridinyl)-1H-pyrazolo[4,3-c]pyridine] | 6.00 to 7.00

Next, values leading:

pIC50 | Structure (SMILES)
> 7.70 | CN1C[C@@H](NC(=O)N2CCc3[nH]nc(-c4ccncc4)c3C2)[C@H](c2cccc(-c3ccccc3)c2)C1 (racemic) [Compound 169, N-[trans-4-[1,1′-biphenyl]-3-yl-1-methyl-3-pyrrolidinyl]-1,4,6,7-tetrahydro-3-(4-pyridinyl)-5H-pyrazolo[4,3-c]pyridine-5-carboxamide]
> 7.70 | CCN1C[C@@H](NC(=O)N2CCc3[nH]nc(-c4ccncc4)c3C2)[C@H](c2ccc(C)cc2)C1 (racemic) [Compound 161, N-[trans-1-ethyl-4-(4-methylphenyl)-3-pyrrolidinyl]-1,4,6,7-tetrahydro-3-(4-pyridinyl)-5H-pyrazolo[4,3-c]pyridine-5-carboxamide]
6.00 to 7.00 | COC(=O)C1CC(NC(=O)N2CCc3[nH]nc(-c4ccnc(C)c4)c3C2)CN(Cc2c(F)cccc2F)C1 (stereo not shown) [Compound 82, methyl 1-[(2,6-difluorophenyl)methyl]-5-[[[1,4,6,7-tetrahydro-3-(2-methyl-4-pyridinyl)-5H-pyrazolo[4,3-c]pyridin-5-yl]carbonyl]amino]-3-piperidinecarboxylate]
> 7.70 | COc1cccc(F)c1CN1CCC[C@@H](NC(=O)N2CCc3[nH]nc(-c4ccc5c(c4)CCO5)c3C2)C1 [Compound 181, (R)-3-(2,3-dihydrobenzofuran-5-yl)-N-(1-(2-fluoro-6-methoxybenzyl)piperidin-3-yl)-6,7-dihydro-1H-pyrazolo[4,3-c]pyridine-5(4H)-carboxamide]
6.00 to 7.00 | Cc1nc2cc(-c3n[nH]c4c3CN(C(=O)N[C@@H]3CCCN(Cc5cccc6cnccc56)C3)CC4)ccc2o1 [Compound 142, 1,4,6,7-tetrahydro-N-[1-(5-isoquinolinylmethyl)-3(R)-pipendinyl]-3-(2-methyl-5-benzoxazolyl)-5H-pyrazolo[4,3-c]pyridine-5-carboxamide]
> 7.70 | O=C(N[C@@H]1CCCN(Cc2ccccc2)C1)N1CCc2[nH]nc(-c3ccncc3)c2C1 (single isomer, unassigned) [Compound 175]
4.00 to 6.00 | COc1ccccc1CC(=O)N1CCc2[nH]nc(-c3ccncc3)c2C1 [Compound 10, 4,5,6,7-tetrahydro-5-[(2-methoxyphenyl)acetyl]-3-(4-pyridinyl)-1H-pyrazolo[4,3-c]pyridine]
> 7.70 | Cc1cc(-c2n[nH]c3c2CN(C(=O)N[C@@H]2CC[C@H]4CC[C@@H]2N4Cc2c(F)cccc2F)CC3)ccn1 [Compound 178, N-[exo-8-[(2,6-difluorophenyl)methyl]-8-azabicyclo[3.2.1]oct-2-yl]-1,4,6,7-tetrahydro-3-(2-methyl-4-pyridinyl)-5H-pyrazolo[4,3-c]pyridine-5-carboxamide]
7.00 to 7.68 | COc1cccc(F)c1CN1CCC[C@@H](NC(=O)N2CCc3[nH]nc(-c4ccc5sc(C)nc5c4)c3C2)C1 [Compound 186, (R)-N-(1-(2-fluoro-6-methoxybenzyl)piperidin-3-yl)-3-(2-methylbenzo[d]thiazol-5-yl)-6,7-dihydro-1H-pyrazolo[4,3-c]pyridine-5(4H)-carboxamide]
7.00 to 7.68 | Cc1cc(-c2n[nH]c3c2CN(C(=O)N[C@@H]2CCCN(Cc4c(F)cccc4F)C2)CC3)ccn1 [Compound 81, N-[1-[(2,6-difluorophenyl)-methyl]-3(R)-piperidinyl]-1,4,6,7-tetrahydro-3-(2-methyl-4-pyridinyl)-5H-pyrazolo[4,3-c]pyridine-5-carboxamide]
7.00 to 7.68 | Cc1cc(-c2n[nH]c3c2CN(C(=O)N[C@@H]2CCN(Cc4ccccc4Cl)C2)CC3)ccn1 [Compound 118, N-[1-[(2-chlorophenyl)-methyl]-3(R)-pyrrolidinyl]-1,4,6,7-tetrahydro-3-(2-methyl-4-pyridinyl)-5H-pyrazolo[4,3-c]pyridine-5-carboxamide]
6.00 to 7.00 | O=C(Cc1cccc(Br)c1)N1CCc2[nH]nc(-c3ccncc3)c2C1 [Compound 9, 5-[(3-bromophenyl)acetyl]-4,5,6,7-tetrahydro-3-(4-pyridinyl)-1H-pyrazolo[4,3-c]pyridine]
7.00 to 7.68 | Cc1cc(-c2n[nH]c3c2CN(C(=O)NC2CC(C)CN(Cc4ccc5ccccc5n4)C2)CC3)ccn1 (stereo not drawn) [Compound 104, 1,4,6,7-tetrahydro-3-(2-methyl-4-pyridinyl)-N-[5-methyl-l-(2-quinolinylmethyl)-3-piperidinyl]-5H-pyrazolo[4,3-c]pyridine-5-carboxamide]
6.00 to 7.00 | O=C(CC1CCCNC1)N1CCc2[nH]nc(-c3ccncc3)c2C1 (stereo not shown) [Compound 51, 4,5,6,7-tetrahydro-5-(3-piperidinylacetyl)-3-(4-pyridinyl)-1H-pyrazolo[4,3-c]pyridine]
